Experiments:
Propionibacterium acnes = assay: Minimum inhibitory concentration at pH 5 on growth of Propionibacterium acnes; format: cell-based; conditions: P. acnes, pH 5, product alone
Procedure: (§1) a) The minimum inhibitory concentration, at pH 5, of composition according to the invention on the growth of the strains below was determined:
(§2) b) The minimum inhibitory concentration, at pH 5, on the growth of the same strains for an octanoylglycine+zinc gluconate combination was determined.

lipase = assay: Anti-lipase test: titration of free fatty acids formed from triglycerides; format: biochemical
Procedure: The test involves assaying the free fatty acids obtained by degradation of the triglycerides with lipase. A known amount of triglycerides (“Lipase Substrate” sold by the company Sigma), a known amount of lipase (“Enzyme Control 2E” sold by the company Sigma) and the test composition are placed together in a tube. After an incubation period of three hours at 37° C., the enzymatic reaction is stopped and the free fatty acids formed are assayed by titration with 0.05 M sodium hydroxide. The results are expressed as a percentage of inhibition of the enzyme by the composition considered, by comparing it with a control test.

Staphylococcus aureus = assay: Minimum inhibitory concentration at pH 5 on growth of Staphylococcus aureus; format: cell-based; conditions: Staph. Aureus, pH 5, product alone
Procedure: as §1, §2

[1] = molecular target: T1, human leukocytic elastase (HLE) (Homo sapiens, UniProt P08246); assay: Anti-elastase test: hydrolysis of N-methoxysuccinyl-alanine-proline-valine-para-nitroanilide, spectrophotometry at 410 nm; format: biochemical
T1 sequence (P08246 30-267): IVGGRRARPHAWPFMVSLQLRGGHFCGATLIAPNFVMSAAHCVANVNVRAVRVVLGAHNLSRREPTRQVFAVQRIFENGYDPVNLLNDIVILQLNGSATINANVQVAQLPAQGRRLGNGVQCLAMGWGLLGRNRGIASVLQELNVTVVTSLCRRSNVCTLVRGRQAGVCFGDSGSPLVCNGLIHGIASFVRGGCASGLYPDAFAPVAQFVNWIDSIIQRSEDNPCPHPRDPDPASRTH
Procedure: Such a substance can be, for example, N-methoxysuccinyl-alanine-proline-valine-para-nitroanilide, a normally colourless substance which releases, by hydrolysis with human leukocytic elastase, a coloured product, para-nitroaniline, whose appearance kinetics can be monitored by spectrophotometry at 410 nm.
The reaction is carried out in a spectrophotometer thermostatically set at 25° C. and equipped with a sample changer. All of the kinetics are carried out a minimum of three times, the average and the standard deviation then being calculated for the three values obtained.
The presence of a molecule with anti-elastase activity is reflected by a limitation of the appearance of the coloured product and the anti-elastase effect can then be calculated relative to a control curve obtained in the absence or the said molecule.
A correlation thus exists between the percentage of inhibition of the appearance of the coloured product by the test compound and the percentage of inhibition of human leukocytic elastase.

Staphylococcus epidermis = assay: Minimum inhibitory concentration at pH 5 on growth of Staphylococcus epidermis; format: cell-based; conditions: Staph. Epidermis, pH 5, product alone
Procedure: as §1, §2

percentage of inhibition of lipase (lipase; 1.6% octanoylglycine, 3 hours at 37° C.) | % inhibition of elastase ([1]; 0.625% octanoylglycine alone) | inhibitory activity on elastase (in words) ([1]; at the concentrations tested) | Molecule | minimum inhibitory concentration (Propionibacterium acnes) | minimum inhibitory concentration (Staphylococcus aureus) | minimum inhibitory concentration (Staphylococcus epidermis) | percentage of inhibition of lipase (lipase; 0.13% solution of zinc gluconate, same operating conditions)
44% | 5% | no inhibitory activity | CCCCCCCC(=O)NCC(=O)O [octanoylglycine] | 0.5% | 0.25% | 0.20% | –
– | – | – | zinc gluconate | 1% | 0.5% | 10.5% | 40%
